From article PMC11372837, “Albumin-Mediated Drug Uptake by Organic Anion Transporter 1/3 Is Real: Implications for the Prediction of Active Renal Secretion Clearance” (Molecular Pharmaceutics, 2024)
Where “and” joins values, the source holds several entries; their conditions need not be identical. Equal values may be shown once. Entries after “also recorded” stand apart in the source; their conditions may differ. Read-outs that look alike come from different tables or passages of the source.

Assays:
human serum albumin = human serum albumin (Homo sapiens, UniProt P02768); test: Extent of albumin binding: high throughput equilibrium dialysis (fu,inc, Kd); assay type: in vitro ADME; details: mean ± SD; for fu,inc (4%) / fraction unbound at 6 h: equilibrium dialysis 37 °C 6 h; for fraction unbound at 6 h: human; for Kd: estimated using eq 3 from measured fu,inc
Protocol: Briefly, cellulose membranes with MWCO of 12–14 kDa were submerged in distilled water for 1 h, followed by 20% ethanol/distilled water for at least 20 min. Prior to the start of the experiment, cellulose membranes were rinsed in distilled water and submerged in blank DPBS for 15 min. The HTDialysis device was assembled according to the manufacturer’s instructions (https://www.htdialysis.com). Blank DPBS was first added to the receiver side of the dialysis membranes, followed by DPBS spiked with HSA and the OAT1/3 substrate to the donor side. Each HSA concentration was tested in triplicates. The HTDialysis device was sealed with an adhesive sealing film and incubated in a water bath at 37 °C for 6 h shaken at 150 rpm. Once the assay was completed, aliquots from both receiver and donor wells were transferred to a 96-well plate and stored at −80 °C until analysis. DPBS spiked with the OAT1/3 substrate from both before and after incubation was stored to assess the recovery and stability of the samples. To prepare the sample for analysis, donor and receiver samples were matrix-matched and quenched with ice-cold acetonitrile containing an internal standard (0.5 μM gemfibrozil or 0.05 μM buspirone).

OAT1/3 [1] = test: Bottom-up IVIVE of CLint,sec, CLsec and CLr, relative expression factor (REF) approach; set-up: species or system human; details: REF approach
From the text: (§1) The relative expression and relative activity factor (REF and RAF) are unitless scalers that account for in vivo versus in vitro differences in the abundance and activity of OAT1/3 and are used for IVIVE of in vitro CLint,u,active. REF was derived from the OAT1/3 expression ratio between the in vivo human kidney cortex to the in vitro ciPTEC-OAT1/3, as shown in eq 7: [drawing 8] 7 Absolute abundance of OAT1 and OAT3 in the human kidney cortex was previously quantified by our group using the filter-aided sample preparation protocol and global proteomic analysis.[44]

[2] = in vivo, plasma renal clearance, clinical data; cited from earlier work
OAT1 [3] = target: T1, OAT1 (Homo sapiens, UniProt Q4U2R8); test: OAT1 uptake study in ciPTEC-OAT1; details: for Vb,max OAT1, Active and Passive Uptake: eq 4 fitted to CLint,u; for Vb,max OAT1, Active and Passive Uptake / Vb,max OAT1, Active Uptake Only: mean ± S.D.; for Vb,max OAT1, Active Uptake Only: eq 4 fitted to CLint,u,active, Kd,m fixed from OAT3 data; for OAT1 substrate status (uptake in ciPTEC-OAT1): control vs probenecid 300 μM
T1 sequence (Q4U2R8 1-563): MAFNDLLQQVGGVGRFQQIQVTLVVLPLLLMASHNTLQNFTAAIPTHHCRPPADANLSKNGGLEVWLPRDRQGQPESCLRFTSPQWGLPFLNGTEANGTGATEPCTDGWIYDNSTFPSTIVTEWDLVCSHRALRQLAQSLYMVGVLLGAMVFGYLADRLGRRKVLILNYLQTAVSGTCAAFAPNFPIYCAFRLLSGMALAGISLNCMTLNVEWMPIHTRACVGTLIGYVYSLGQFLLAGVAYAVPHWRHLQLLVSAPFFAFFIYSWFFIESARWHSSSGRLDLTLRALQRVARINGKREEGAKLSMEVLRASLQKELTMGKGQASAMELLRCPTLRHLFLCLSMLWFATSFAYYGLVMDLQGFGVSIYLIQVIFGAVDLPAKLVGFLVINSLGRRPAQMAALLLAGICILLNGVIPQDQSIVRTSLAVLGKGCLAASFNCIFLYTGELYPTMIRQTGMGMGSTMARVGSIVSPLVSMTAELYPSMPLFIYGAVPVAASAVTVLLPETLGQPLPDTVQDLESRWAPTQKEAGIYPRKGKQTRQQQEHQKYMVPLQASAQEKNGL

OAT3 [4] = target: T2, OAT3 (Homo sapiens, UniProt Q8TCC7); test: OAT3 uptake study in ciPTEC-OAT3; details: for OAT3 substrate status (uptake in ciPTEC-OAT3): control vs probenecid 300 μM; for Vb,max OAT3, Active and Passive Uptake: eq 4 fitted to CLint,u; for Vb,max OAT3, Active and Passive Uptake / Vb,max OAT3, Active Uptake Only: mean ± S.D.; for Vb,max OAT3, Active Uptake Only: eq 4 fitted to CLint,u,active; for ratio of CLint,u,active (R) (HSA/control) 1%: OAT3, 1% HSA vs control; for ratio of CLint,u,active (R) (HSA/control) 4%: OAT3, 4% HSA vs control
T2 sequence (Q8TCC7 1-542): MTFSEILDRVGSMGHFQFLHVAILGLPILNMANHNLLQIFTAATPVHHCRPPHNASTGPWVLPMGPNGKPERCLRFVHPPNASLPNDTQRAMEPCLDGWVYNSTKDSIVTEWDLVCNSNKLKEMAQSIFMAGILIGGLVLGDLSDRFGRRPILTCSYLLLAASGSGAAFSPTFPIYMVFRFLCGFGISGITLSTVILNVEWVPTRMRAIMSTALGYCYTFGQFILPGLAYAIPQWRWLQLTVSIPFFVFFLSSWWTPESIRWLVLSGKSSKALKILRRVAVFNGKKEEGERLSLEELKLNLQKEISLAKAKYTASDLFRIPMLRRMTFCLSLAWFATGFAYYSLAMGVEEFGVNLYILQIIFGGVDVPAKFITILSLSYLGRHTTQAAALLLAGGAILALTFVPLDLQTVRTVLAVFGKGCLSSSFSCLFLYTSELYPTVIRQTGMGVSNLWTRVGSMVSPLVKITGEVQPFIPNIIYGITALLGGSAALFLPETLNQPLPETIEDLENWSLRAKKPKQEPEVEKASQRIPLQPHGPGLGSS

[5] = Observed in vivo (clinical) renal, secretion and intrinsic secretion clearance; details: in vivo; for CLint,sec Observed: back-calculated from clinical data
OAT1 [6] = test: as above; details: human, plasma
[7] = human, in vivo
OAT3 [8] = test: clinical; details: human
OAT1/3 [9] = test: Bottom-up IVIVE of CLint,sec, CLsec and CLr, relative activity factor (RAF) approach; set-up: species or system human
From the text: as §1

[10] = 1% human serum albumin in DPBS, 1% HSA, read-out: fu,inc (1%)
[11] = 4% HSA in DPBS, 4% HSA, read-out: fu,inc (4%)

Sequence of human serum albumin (P02768 25-609): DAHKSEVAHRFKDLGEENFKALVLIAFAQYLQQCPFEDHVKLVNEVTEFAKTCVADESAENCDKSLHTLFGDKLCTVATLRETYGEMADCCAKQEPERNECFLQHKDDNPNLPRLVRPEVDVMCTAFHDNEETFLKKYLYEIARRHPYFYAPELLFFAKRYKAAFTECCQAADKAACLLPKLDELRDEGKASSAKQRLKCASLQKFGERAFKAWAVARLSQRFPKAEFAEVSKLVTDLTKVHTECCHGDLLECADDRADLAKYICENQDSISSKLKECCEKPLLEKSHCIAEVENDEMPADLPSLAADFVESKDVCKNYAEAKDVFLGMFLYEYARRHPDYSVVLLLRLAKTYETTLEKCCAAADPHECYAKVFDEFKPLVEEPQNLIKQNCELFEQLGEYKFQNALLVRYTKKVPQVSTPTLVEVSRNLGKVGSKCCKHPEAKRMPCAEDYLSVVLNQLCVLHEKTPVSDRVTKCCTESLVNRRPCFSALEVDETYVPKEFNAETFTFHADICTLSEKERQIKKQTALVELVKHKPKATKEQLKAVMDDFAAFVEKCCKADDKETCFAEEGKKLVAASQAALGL

SMILES | fu,inc (4%) (human serum albumin; 4% HSA) | fraction unbound at 6 h (human serum albumin; [10]) | fraction unbound at 6 h (human serum albumin; [11]) | CLint,sec Predicted 0% HSA (OAT1/3 [1]) [L/h] | CLint,sec Predicted 1% HSA (OAT1/3 [1]) [L/h] | CLint,sec Predicted 4% HSA (OAT1/3 [1]) [L/h] | CLsec Predicted 0% HSA (OAT1/3 [1]) [L/h] | CLsec Predicted 1% HSA (OAT1/3 [1]) [L/h] | CLsec Predicted 4% HSA (OAT1/3 [1]) [L/h] | CLr Observed [2] [L/h] | Vb,max OAT1, Active and Passive Uptake (OAT1 [3]) [pmol/min/mg] | Vb,max OAT1, Active Uptake Only (OAT1 [3]) [pmol/min/mg] | OAT3 substrate status (uptake in ciPTEC-OAT3) (OAT3 [4]) | CLint,sec Observed [5] [L/h] | Kd (human serum albumin) [µM] | CLint,sec Observed [7] [L/h] | CLsec Observed [7] [L/h] | OAT1 substrate status (uptake in ciPTEC-OAT1) (OAT1 [3]) | Vb,max OAT3, Active and Passive Uptake (OAT3 [4]) [pmol/min/mg] | Vb,max OAT3, Active Uptake Only (OAT3 [4]) [pmol/min/mg] | other results
Nc1ncnc2c1ncn2CCOCP(=O)(O)O [adefovir] | 0.977 ± 0.062 | 0.999 ± 0.019 | > 0.95 | 42.9 | 57.8 | 44.7 | 21.3 | 25.1 | 21.8 | 14.2 | -1083 ± 194000 | 3055 ± 188000 | not an OAT3 substrate | 10.8 |  |  |  |  |  |  | Effect of HSA on OAT1 uptake / CLint,u,active (OAT1 [3]; 1 and 4% HSA vs control): no effect; also recorded: did not show any significant change; also recorded: absence of any change; CLsec Observed ([5]; plasma secretion clearance): 7.82 L/h; microsomal CLint (OAT1 [6]): 35.2 µL/min/mg
CCCCNc1cc(C(=O)O)cc(S(N)(=O)=O)c1Oc1ccccc1 [bumetanide] |  | 0.141 ± 0.012 | 0.029 ± 0.003 |  |  |  |  |  |  | 5.77 | 467 ± 49.4 | 447 ± 48 | dual OAT1/3 substrates |  | 21.1 ± 1.4 | 680 | 5.51 | dual OAT1/3 substrates | 492 ± 144 | 470 ± 132 | 
CCC(CC)O[C@@H]1C=C(C(=O)O)C[C@H](N)[C@H]1NC(C)=O [oseltamivir carboxylate] | 0.983 ± 0.018 | 0.973 ± 0.039 | > 0.95 |  |  |  |  |  |  | 15.6 |  |  |  |  |  | 11.7 | 8.29 |  | -1150 ± 2660 | -1120 ± 2640 | microsomal CLint (OAT3 [8]): 36.2 µL/min/mg; Effect of HSA on OAT3 uptake / CLint,u,active (OAT3 [4]; 1 and 4% HSA vs control): no effect; also recorded: did not show any significant change; also recorded: absence of any change
O=C(NC[C@H]1CN(c2ccc(N3CCOCC3=O)cc2)C(=O)O1)c1ccc(Cl)s1 [rivaroxaban] |  | 0.217 ± 0.006 | 0.096 ± 0.007 | 6.78 | 41.7 | 67.0 | 0.48 | 2.79 | 4.32 | 3.17 |  |  |  | 41.2 | 55 ± 4.3 |  | 2.63 | did not show any appreciable uptake | 723 ± 216 | 714 ± 201 | CLint,sec Predicted 0% HSA (OAT1/3 [9]): 34.1 L/h; CLint,sec Predicted 1% HSA (OAT1/3 [9]): 210 L/h; CLint,sec Predicted 4% HSA (OAT1/3 [9]): 337.7 L/h; CLsec Predicted 0% HSA (OAT1/3 [9]): 2.32 L/h; CLsec Predicted 1% HSA (OAT1/3 [9]): 11.1 L/h; CLsec Predicted 4% HSA (OAT1/3 [9]): 15.4 L/h; ratio of CLint,u,active (R) (HSA/control) 1% (OAT3 [4]): 6.44 ± 2.61; ratio of CLint,u,active (R) (HSA/control) 4% (OAT3 [4]): 10.0 ± 2.2
CC(C)c1nc(N(C)S(C)(=O)=O)nc(-c2ccc(F)cc2)c1/C=C/[C@@H](O)C[C@@H](O)CC(=O)O [rosuvastatin] |  | 0.435 ± 0.041 | 0.18 ± 0.009 | 6.80 | 13.6 | 17.7 | 0.78 | 1.52 | 1.96 | 11.9 |  |  |  |  | 127 ± 5.6 | 130 | 11.1 | did not show any appreciable uptake | 290 ± 101 | 281 ± 96 | CLint,sec Predicted 0% HSA (OAT1/3 [9]): 34.3 L/h; CLint,sec Predicted 1% HSA (OAT1/3 [9]): 68.3 L/h; CLint,sec Predicted 4% HSA (OAT1/3 [9]): 89.0 L/h; CLsec Predicted 0% HSA (OAT1/3 [9]): 3.64 L/h; CLsec Predicted 1% HSA (OAT1/3 [9]): 6.66 L/h; CLsec Predicted 4% HSA (OAT1/3 [9]): 8.27 L/h; ratio of CLint,u,active (R) (HSA/control) 1% (OAT3 [4]): 2.12 ± 0.58; ratio of CLint,u,active (R) (HSA/control) 4% (OAT3 [4]): 2.7 and 2.68 ± 0.62
